Measurements published in ChEMBL document CHEMBL1139203, “Syntheses and antiproliferative evaluation of oxyphenisatin derivatives” (Bioorg Med Chem Lett, 2007).
pIC50: −log10 of the molar value. ≈ marks a conversion by molar mass, not a printed value.

Tests used:
[1] = Antiproliferative activity against human MDA468 cells; type: functional, cell-based; conditions: MDA-MB-468
[2] = Antiproliferative activity against human MDA231 cells; type: functional, cell-based; conditions: MDA-MB-231
[3] = Aqueous solubility at pH 7.0; type: physicochemical
Cytochrome P450 2D6 = Cytochrome P450 2D6 (Homo sapiens, UniProt P10635); assay: Inhibition of human CYP2D6; type: ADME
Cytochrome P450 2C9 = Cytochrome P450 2C9 (Homo sapiens, UniProt P11712); assay: Inhibition of human CYP2C9; type: ADME
[4] = Permeability across human Caco-2 cell membrane; type: ADME, cell-based; conditions: read-out: permeability
Cytochrome P450 2C19 = Cytochrome P450 2C19 (Homo sapiens, UniProt P33261); assay: Inhibition of human CYP2C19; type: ADME
Cytochrome P450 1A2 = biological target: T1, Cytochrome P450 1A2 (Homo sapiens, UniProt P05177); assay: Inhibition of human CYP1A2; type: ADME
T1 sequence (P05177 whole entry): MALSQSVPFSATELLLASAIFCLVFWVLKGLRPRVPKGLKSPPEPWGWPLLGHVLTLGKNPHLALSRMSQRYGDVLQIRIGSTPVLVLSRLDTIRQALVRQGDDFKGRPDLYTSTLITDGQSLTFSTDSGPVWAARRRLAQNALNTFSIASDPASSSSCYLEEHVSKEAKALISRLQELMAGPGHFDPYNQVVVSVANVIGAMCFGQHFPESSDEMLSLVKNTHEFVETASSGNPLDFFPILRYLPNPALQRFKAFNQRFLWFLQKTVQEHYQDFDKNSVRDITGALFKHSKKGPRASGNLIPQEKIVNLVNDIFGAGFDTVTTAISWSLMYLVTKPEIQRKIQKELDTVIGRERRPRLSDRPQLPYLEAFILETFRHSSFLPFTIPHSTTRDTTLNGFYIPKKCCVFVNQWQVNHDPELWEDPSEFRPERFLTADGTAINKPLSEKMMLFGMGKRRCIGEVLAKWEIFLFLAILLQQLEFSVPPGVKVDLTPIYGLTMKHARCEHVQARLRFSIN

Cytochrome P450 3A4 = Cytochrome P450 3A4 (Homo sapiens, UniProt P08684); assay: Inhibition of human CYP3A4; type: ADME
Serum = assay: Protein binding to human serum; type: ADME, cell-free

Chain of Cytochrome P450 2C9 (P11712 whole entry): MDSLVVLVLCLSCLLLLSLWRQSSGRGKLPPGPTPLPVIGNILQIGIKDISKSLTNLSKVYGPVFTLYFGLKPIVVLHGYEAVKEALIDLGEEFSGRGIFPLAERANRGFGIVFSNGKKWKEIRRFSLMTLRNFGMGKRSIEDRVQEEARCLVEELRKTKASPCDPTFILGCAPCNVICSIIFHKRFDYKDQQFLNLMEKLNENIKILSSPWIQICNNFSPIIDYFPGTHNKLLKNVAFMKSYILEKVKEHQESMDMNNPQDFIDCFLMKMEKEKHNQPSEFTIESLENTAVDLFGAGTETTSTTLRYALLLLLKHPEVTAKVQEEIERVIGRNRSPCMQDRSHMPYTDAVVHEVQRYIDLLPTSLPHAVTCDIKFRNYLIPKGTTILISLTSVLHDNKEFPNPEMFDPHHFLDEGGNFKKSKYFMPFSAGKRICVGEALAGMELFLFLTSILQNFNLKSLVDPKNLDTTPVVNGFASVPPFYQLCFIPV
Chain of Cytochrome P450 2C19 (P33261 whole entry): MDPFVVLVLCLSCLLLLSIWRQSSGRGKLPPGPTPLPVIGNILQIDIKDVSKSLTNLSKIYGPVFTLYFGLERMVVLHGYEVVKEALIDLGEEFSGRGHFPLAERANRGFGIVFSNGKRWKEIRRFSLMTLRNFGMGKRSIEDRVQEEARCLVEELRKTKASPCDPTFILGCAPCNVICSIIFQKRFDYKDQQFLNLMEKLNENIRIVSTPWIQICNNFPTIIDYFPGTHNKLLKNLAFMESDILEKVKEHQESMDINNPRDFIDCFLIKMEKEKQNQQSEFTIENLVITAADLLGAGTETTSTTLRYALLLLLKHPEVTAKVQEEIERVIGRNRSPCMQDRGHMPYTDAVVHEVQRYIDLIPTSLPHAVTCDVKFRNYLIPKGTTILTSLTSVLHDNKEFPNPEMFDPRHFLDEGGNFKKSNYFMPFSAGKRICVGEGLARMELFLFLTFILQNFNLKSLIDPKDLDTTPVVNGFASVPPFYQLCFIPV
Chain of Cytochrome P450 2D6 (P10635 whole entry): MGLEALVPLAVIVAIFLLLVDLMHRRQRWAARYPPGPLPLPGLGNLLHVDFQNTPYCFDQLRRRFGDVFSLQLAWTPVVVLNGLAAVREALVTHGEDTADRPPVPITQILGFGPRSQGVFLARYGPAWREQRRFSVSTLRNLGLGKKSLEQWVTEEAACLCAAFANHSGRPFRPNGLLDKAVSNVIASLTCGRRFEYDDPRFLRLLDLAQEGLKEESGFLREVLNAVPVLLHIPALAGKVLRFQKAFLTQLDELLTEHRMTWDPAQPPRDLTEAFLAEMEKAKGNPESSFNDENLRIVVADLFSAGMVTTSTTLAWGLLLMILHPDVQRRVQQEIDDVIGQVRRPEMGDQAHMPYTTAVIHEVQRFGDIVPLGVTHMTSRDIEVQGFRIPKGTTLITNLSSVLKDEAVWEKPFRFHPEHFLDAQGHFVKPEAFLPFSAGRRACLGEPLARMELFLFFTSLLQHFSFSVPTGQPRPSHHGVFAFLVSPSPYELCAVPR
Chain of Cytochrome P450 3A4 (P08684 whole entry): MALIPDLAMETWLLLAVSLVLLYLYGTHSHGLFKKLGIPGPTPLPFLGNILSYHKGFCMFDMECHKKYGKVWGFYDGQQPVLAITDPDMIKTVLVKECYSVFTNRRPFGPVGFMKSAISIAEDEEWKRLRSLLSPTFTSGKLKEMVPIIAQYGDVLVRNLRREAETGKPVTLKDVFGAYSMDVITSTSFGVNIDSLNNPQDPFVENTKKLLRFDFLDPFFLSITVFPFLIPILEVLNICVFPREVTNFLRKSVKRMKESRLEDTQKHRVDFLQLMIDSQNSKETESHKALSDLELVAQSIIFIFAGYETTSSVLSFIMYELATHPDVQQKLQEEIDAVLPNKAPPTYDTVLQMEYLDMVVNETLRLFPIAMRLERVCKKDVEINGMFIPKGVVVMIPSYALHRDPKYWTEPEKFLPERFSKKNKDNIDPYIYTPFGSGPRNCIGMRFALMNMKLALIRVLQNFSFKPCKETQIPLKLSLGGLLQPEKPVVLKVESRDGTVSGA

Compound | pIC50 [1] | pIC50 [2] | other results
O=C1Nc2c(I)cccc2C1(c1ccc(O)cc1)c1ccc(O)cc1 | 7.21 | < 5.52 | 
COc1ccc(C2(c3ccc(OC)cc3)C(=O)Nc3ccccc32)cc1 | 5.74 | < 5.52 | 
N#Cc1cccc2c1NC(=O)C2(c1ccc(O)cc1)c1ccc(O)cc1 | 7.24 | < 5.52 | 
O=C1Nc2ccccc2C1(c1ccc(O)cc1)c1ccc(O)cc1 [OXYPHENISATINE] | 6.95 | < 5.52 | 
Cc1cccc2c1NC(=O)C2(c1ccc(O)cc1)c1ccc(O)cc1 | 7.57 | < 5.52 | 
O=C(O)c1cccc2c1NC(=O)C2(c1ccc(O)cc1)c1ccc(O)cc1 | < 5.52 | < 5.52 | 
O=C1Nc2c(C(F)(F)F)cccc2C1(c1ccc(O)cc1)c1ccc(O)cc1 |  |  | solubility [3]: 640 µg/mL (≈ 1660 µM); Activity (Cytochrome P450 2D6): > 10 µM; Activity (Cytochrome P450 2C9): 1 µM; Papp [4]: 1.96 ×10⁻⁶ cm/s; Activity (Cytochrome P450 2C19): 1 µM; Activity (Cytochrome P450 1A2): > 10 µM; Activity (Cytochrome P450 3A4): > 10 µM
O=C1Nc2c(ccc(F)c2F)C1(c1ccc(O)cc1)c1ccc(O)cc1 | 8.52 | < 5.52 | solubility [3]: 230 µg/mL (≈ 651 µM); Activity (Serum): 98%; Activity (Cytochrome P450 2D6): > 10 µM; Activity (Cytochrome P450 2C9): 1 µM; Papp [4]: 4.31 ×10⁻⁶ cm/s; Activity (Cytochrome P450 2C19): 1 µM; Activity (Cytochrome P450 1A2): > 10 µM; Activity (Cytochrome P450 3A4): > 10 µM
O=C1Nc2c(ccc3c2CCCCC3)C1(c1ccc(O)cc1)c1ccc(O)cc1 | 7.26 | < 5.52 | 
